How the values were obtained:
[1] = target: histamine receptor H1 (Homo sapiens, UniProt P35367); assay: Histamine H1 radioligand binding ([3H]Pyrilamine); details: read-out: Histamine Binding (1 μM) H1, percent inhibition of specific binding, 1 μM
Outline: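 Values are percent inhibition of specific [3H]pyrilamine (1.2 nM) binding with compounds at ≤1 μM (1% DMSO vehicle); 180 min incubation at 25 °C, pH 7.4 Tris buffer, on CHO-expressed human H1 receptor; 1 μM pyrilamine defined nonspecific binding, bound ligand counted after filtration.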

[2] = target: human dopamine D2L receptor (Homo sapiens, UniProt P14416); assay: Dopamine D2L radioligand binding ([3H]Spiperone); details: percent inhibition of specific binding; compound at 1 μM; read-out: Inhibition of ligand binding, Dopamine D2L
Source text: Non-specific binding was estimated in the presence of […] Haloperidol. Receptor proteins were filtered and washed, the filters were then counted to determine [^3H]Spiperone specifically bound. […] Biochemical assay results are presented as the percent inhibition of specific binding in Table 9.

[3] = target: T1, human recombinant serotonin (5-Hydroxytryptamine) 5-HT2A receptor (Homo sapiens, UniProt P28223); assay: Serotonin 5-HT2A radioligand binding ([3H]Ketanserin); details: read-out: Inhibition of ligand binding, Serotonin 5-HT2A (percent inhibition of specific binding), compound at 0.1 μM
T1 construct: expressed in transfected cells; host or cells: Chinese hamster ovary (CHO-K1) cells
Protocol: (§1) Compounds of the invention were incubated with 0.5 nM [^3H]Ketanserin for 60 min. at 25° C. Non-specific binding was estimated in the presence of 1 μM Mianserin. Receptor proteins were filtered and washed, the filters were then counted to determine [^3H]Ketanserin specifically bound.

[4] = target: T2, human recombinant serotonin (5-Hydroxytryptamine) 5-HT2C receptor (Homo sapiens, UniProt P28335); assay: Serotonin 5-HT2C radioligand binding ([3H]Mesulergine); details: compound at 0.1 μM; read-out: Inhibition of ligand binding, Serotonin 5-HT2C (percent inhibition of specific binding)
T2 construct: expressed in transfected cells; host or cells: Chinese hamster ovary (CHO-K1) cells
T2 sequence (P28335 33-458): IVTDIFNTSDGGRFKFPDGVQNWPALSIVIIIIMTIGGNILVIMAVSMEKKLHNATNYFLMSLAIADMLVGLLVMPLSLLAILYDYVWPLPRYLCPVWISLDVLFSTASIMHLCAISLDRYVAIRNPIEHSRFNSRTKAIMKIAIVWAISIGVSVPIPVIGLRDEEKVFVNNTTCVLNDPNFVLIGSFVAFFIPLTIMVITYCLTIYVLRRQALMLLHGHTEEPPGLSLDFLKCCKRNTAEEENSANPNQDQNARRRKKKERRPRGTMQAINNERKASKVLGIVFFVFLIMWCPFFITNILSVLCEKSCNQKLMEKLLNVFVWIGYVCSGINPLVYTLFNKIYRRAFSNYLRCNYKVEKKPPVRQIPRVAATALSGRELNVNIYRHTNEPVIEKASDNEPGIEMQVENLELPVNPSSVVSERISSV
Protocol: as §1, with “1” for “0.5”, “[^3H]Mesulergine” for “[^3H]Ketanserin”, “bound. Compounds were screened at 1 μM or lower, using 1% DMSO as vehicle. Biochemical assay results are presented as the percent inhibition of specific binding in Table 10.” for “bound.”

[5] = target: T3, human recombinant serotonin (5-Hydroxytryptamine) 5-HT6 receptor (Homo sapiens, UniProt P50406); assay: Serotonin 5-HT6 radioligand binding ([3H]LSD); details: compound at 0.1 μM; read-out: Inhibition of ligand binding, Serotonin 5-HT6 (percent inhibition of specific binding)
T3 construct: expressed in transfected cells; host or cells: human HeLa cells
Protocol: Compounds of the invention were incubated with 1.5 nM [3H]Lysergic acid diethylamide (LSD) for 120 min. at 37° C. […] Receptor proteins were filtered and washed, the filters were then counted to determine [3H]LSD specifically bound. Compounds were screened at 1 μM or lower, using 1% DMSO as vehicle. Biochemical assay results are presented as the percent inhibition of specific binding in Table 10.

[6] = target: human recombinant serotonin (5-Hydroxytryptamine) 5-HT7 receptor (Homo sapiens, UniProt P34969); assay: Serotonin 5-HT7 radioligand binding ([3H]LSD); details: compound at 0.1 μM; read-out: Inhibition of ligand binding, Serotonin 5-HT7 (percent inhibition of specific binding)
Source text: Receptor proteins were filtered and washed, the filters were then counted to determine [^3H]LSD specifically bound.

T1 sequence (P28223 whole entry): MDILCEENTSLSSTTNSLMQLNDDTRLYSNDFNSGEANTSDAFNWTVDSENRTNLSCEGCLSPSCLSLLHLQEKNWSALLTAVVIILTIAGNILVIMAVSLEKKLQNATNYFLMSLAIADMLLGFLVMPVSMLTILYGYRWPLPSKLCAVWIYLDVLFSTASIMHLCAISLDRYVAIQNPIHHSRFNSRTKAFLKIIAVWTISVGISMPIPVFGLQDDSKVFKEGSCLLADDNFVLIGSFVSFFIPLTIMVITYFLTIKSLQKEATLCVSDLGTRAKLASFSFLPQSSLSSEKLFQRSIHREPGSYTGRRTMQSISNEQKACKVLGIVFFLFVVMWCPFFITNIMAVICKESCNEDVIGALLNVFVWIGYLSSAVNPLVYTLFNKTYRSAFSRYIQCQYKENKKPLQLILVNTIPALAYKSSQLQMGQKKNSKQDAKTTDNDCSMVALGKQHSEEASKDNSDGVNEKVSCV
Chain of histamine receptor H1 (P35367 whole entry): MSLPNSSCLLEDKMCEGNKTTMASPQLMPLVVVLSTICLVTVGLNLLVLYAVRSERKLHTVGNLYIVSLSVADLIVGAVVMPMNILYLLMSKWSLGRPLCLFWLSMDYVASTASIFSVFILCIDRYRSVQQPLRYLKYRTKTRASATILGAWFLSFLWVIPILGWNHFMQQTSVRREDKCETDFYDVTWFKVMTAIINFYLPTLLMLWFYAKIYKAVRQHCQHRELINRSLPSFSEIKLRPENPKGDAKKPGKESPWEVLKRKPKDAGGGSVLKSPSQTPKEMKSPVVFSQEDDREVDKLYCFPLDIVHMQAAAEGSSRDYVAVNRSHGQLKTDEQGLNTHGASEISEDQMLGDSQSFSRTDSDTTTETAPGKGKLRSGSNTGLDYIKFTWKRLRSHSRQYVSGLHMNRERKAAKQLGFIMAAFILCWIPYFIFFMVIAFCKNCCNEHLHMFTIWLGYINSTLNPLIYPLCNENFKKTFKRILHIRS
Chain of human dopamine D2L receptor (P14416 whole entry): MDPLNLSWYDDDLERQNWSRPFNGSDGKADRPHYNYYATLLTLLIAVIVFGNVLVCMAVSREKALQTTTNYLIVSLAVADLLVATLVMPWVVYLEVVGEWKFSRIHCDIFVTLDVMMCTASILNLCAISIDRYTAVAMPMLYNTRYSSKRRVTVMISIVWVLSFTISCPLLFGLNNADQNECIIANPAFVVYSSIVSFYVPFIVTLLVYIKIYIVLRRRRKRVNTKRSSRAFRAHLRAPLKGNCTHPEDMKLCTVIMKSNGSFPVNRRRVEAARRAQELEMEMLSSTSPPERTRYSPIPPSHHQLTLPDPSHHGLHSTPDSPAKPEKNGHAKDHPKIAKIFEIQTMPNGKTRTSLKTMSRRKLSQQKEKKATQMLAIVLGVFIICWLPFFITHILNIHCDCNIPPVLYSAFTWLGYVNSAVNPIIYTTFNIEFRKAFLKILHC
Chain of human recombinant serotonin (5-Hydroxytryptamine) 5-HT7 receptor (P34969 whole entry): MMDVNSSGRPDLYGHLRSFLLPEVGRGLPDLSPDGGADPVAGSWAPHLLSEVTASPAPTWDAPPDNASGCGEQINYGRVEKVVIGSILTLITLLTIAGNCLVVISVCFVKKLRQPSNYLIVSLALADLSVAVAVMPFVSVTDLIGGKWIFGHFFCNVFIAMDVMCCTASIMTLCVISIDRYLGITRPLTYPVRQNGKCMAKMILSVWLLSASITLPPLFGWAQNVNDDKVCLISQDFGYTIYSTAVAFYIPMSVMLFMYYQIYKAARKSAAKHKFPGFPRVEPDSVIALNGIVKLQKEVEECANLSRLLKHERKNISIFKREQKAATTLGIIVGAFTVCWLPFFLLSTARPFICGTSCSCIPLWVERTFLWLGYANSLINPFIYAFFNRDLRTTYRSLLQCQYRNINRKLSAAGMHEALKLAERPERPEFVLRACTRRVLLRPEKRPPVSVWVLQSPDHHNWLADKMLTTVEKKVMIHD
T3 sequence (P50406 whole entry): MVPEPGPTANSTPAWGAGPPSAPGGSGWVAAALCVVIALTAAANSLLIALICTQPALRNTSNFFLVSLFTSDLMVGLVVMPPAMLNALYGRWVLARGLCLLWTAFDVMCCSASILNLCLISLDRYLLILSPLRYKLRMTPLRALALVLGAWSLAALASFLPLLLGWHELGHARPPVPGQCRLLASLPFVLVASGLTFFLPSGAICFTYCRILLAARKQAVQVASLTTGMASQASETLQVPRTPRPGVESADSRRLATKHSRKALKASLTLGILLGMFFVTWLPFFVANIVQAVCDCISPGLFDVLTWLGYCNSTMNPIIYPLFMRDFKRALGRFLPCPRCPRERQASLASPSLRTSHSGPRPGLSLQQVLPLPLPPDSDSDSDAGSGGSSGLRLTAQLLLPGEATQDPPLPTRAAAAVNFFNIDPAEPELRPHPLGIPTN

| Compound | inhibition at 1 µM [1] [%] | inhibition at 1 µM [2] [%] | inhibition at 0.1 µM [3] [%] | inhibition at 0.1 µM [4] [%] | inhibition at 0.1 µM [5] [%] | inhibition at 0.1 µM [6] [%] |
| --- | --- | --- | --- | --- | --- | --- |
| CN1CCc2c(c3cc(Cl)ccc3n2CC(C)(O)c2ccncn2)C1 (stereo not drawn) [Compound 198, 1-(8-chloro-2-methyl-3,4-dihydro-1H-pyrido[4,3-b]indol-5(2H)-yl)-2-(pyrimidin-4-yl)propan-2-ol] | 64 | 5 | 23 | -1 | 11 | 4 |
| CN1CCc2c(c3cc(Cl)ccc3n2CC(C)(O)c2cnccn2)C1 (stereo not drawn) [Compound 199, 1-(8-chloro-2-methyl-3,4-dihydro-1H-pyrido[4,3-b]indol-5(2H)-yl)-2-(pyrazin-2-yl)propan-2-ol] | 61 | 16 | 40 | 33 | 25 | 30 |
| Cc1ccc2c(c1)c1c(n2CC(C)(O)c2cnccn2)CCN(C)C1 (stereo not drawn) [Compound 200, 1-(2,8-dimethyl-3,4-dihydro-1H-pyrido[4,3-b]indol-5(2H)-yl)-2-(pyrazin-2-yl)propan-2-ol] | 45 | 6 | 30 | 17 | 20 | 31 |
| C/C(=C\n1c2c(c3cc(Cl)c(Cl)cc31)CN(C)CC2)c1ccc(F)cc1 [Compound 248, (E)-7,8-dichloro-5-(2-(4-fluorophenyl)prop-1-enyl)-2-methyl-2,3,4,5-tetrahydro-1H-pyrido[4,3-b]indole] | 90 | 95 | 108 | 92 | 101 | 57 |
| C/C(=C\n1c2c(c3cc(C(F)(F)F)ccc31)CN(C)CC2)c1ccncc1 [Compound 249, (E)-2-methyl-5-(2-(pyridin-4-yl)prop-1-enyl)-8-(trifluoromethyl)-2,3,4,5-tetrahydro-1H-pyrido[4,3-b]indole] | 48 | 93 | 90 | 60 | 98 | 70 |
| C/C(=C\n1c2c(c3ccc(C(F)(F)F)cc31)CN(C)CC2)c1ccc(C)nc1 [Compound 250, (E)-2-methyl-5-(2-(6-methylpyridin-3-yl)prop-1-enyl)-7-(trifluoromethyl)-2,3,4,5-tetrahydro-1H-pyrido[4,3-b]indole] | 12 | 18 | 36 | 31 | 13 | 33 |
| C/C(=C\n1c2c(c3cc(F)ccc31)CN(C)CC2)c1ccc(C)nc1 [Compound 251, (E)-8-fluoro-2-methyl-5-(2-(6-methylpyridin-3-yl)prop-1-enyl)-2,3,4,5-tetrahydro-1H-pyrido[4,3-b]indole] | 15 | 25 | 85 | 77 | 8 | 74 |
| C/C(=C\n1c2c(c3cccc(Cl)c31)CN(C)CC2)c1ccc(C)nc1 [Compound 252, (E)-6-chloro-2-methyl-5-(2-(6-methylpyridin-3-yl)prop-1-enyl)-2,3,4,5-tetrahydro-1H-pyrido[4,3-b]indole] | 22 | 13 | 67 | 50 | 9 | 23 |
| C/C(=C\n1c2c(c3ccc(Cl)cc31)CN(C)CC2)c1ccc(C)nc1 [Compound 253, (E)-7-chloro-2-methyl-5-(2-(6-methylpyridin-3-yl)prop-1-enyl)-2,3,4,5-tetrahydro-1H-pyrido[4,3-b]indole] | 20 | 22 | 85 | 49 | 9 | 54 |
| C/C(=C\n1c2c(c3ccccc31)CN(C)CC2)c1ccc(C)nc1 [Compound 254, (E)-2-methyl-5-(2-(6-methylpyridin-3-yl)prop-1-enyl)-2,3,4,5-tetrahydro-1H-pyrido[4,3-b]indole] | 7 | 11 | 65 | 52 | 15 | 63 |
| C/C(=C\n1c2c(c3cc(F)c(F)cc31)CN(C)CC2)c1ccc(C)nc1 [Compound 255, (E)-7,8-difluoro-2-methyl-5-(2-(6-methylpyridin-3-yl)prop-1-enyl)-2,3,4,5-tetrahydro-1H-pyrido[4,3-b]indole] | 11 | 29 | 81 | 69 | 4 | 54 |
| C/C(=C/n1c2c(c3cc(Cl)ccc31)CN(C)CC2)c1ccc(Cl)c(Cl)c1 [Compound 256, (Z)-8-chloro-5-(2-(3,4-dichlorophenyl)prop-1-enyl)-2-methyl-2,3,4,5-tetrahydro-1H-pyrido[4,3-b]indole] | 92 | 34 | 100 | 90 | 96 | 85 |
| C/C(=C\n1c2c(c3cc(C)ccc31)CN(C)C(C)C2)c1ccncc1 (stereo not drawn) [Compound 257, (E)-2,3,8-trimethyl-5-(2-(pyridin-4-yl)prop-1-enyl)-2,3,4,5-tetrahydro-1H-pyrido[4,3-b]indole] | 18 | 72 | 94 | 94 | 71 | 75 |
| C/C(=C\n1c2c(c3cc(C)ccc31)CN(C)C(C)C2)c1ccc(F)cc1 (stereo not drawn) [Compound 258, (E)-5-(2-(4-fluorophenyl)prop-1-enyl)-2,3,8-trimethyl-2,3,4,5-tetrahydro-1H-pyrido[4,3-b]indole] | 59 | 81 | 98 | 98 | 81 | 84 |
| C/C(=C\n1c2c(c3cccc(F)c31)CN(C)CC2)c1ccc(C)nc1 [Compound 260, (E)-6-fluoro-2-methyl-5-(2-(6-methylpyridin-3-yl)prop-1-enyl)-2,3,4,5-tetrahydro-1H-pyrido[4,3-b]indole] | -19 | 9 | 34 | 29 | -7 | 5 |
| C/C(=C\n1c2c(c3ccc(F)cc31)CN(C)CC2)c1ccc(C)nc1 [Compound 261, (E)-7-fluoro-2-methyl-5-(2-(6-methylpyridin-3-yl)prop-1-enyl)-2,3,4,5-tetrahydro-1H-pyrido[4,3-b]indole] | 11 | 28 | 74 | 31 | 4 | 47 |
| C/C(=C\n1c2c(c3cc(Cl)ccc31)CN(C)C(C)C2)c1ccc(F)cc1 (stereo not drawn) [Compound 262, (E)-8-chloro-5-(2-(4-fluorophenyl)prop-1-enyl)-2,3-dimethyl-2,3,4,5-tetrahydro-1H-pyrido[4,3-b]indole] | 66 | 97 | 99 | 100 | 99 | 94 |

— US8906925B2, “Pyrido[4,3-B]indoles containing rigid moieties” (Medivation Technologies, Inc., priority 2008, dated 2014)
